# Laboratory results from PubChem BioAssay (NCI).
#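 Where inhibition never reached the appropriate level, the endpoint shown equals the highest concentration tested. Otherwise, values were interpolated linearly from a five-concentration, 48-hour dose response in 96-well plates. TGI denotes the concentration required for complete inhibition of growth.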
# Experiments:
# Experiment in all cases: DTP human tumour cell line panel, 48 h
# 786-0 renal = system: 786-0 renal
# A498 renal = system: A498 renal
# A549 NSCLC = system: A549 NSCLC
# ACHN renal = system: ACHN renal
# CAKI-1 renal = system: CAKI-1 renal
# CCRF-CEM leukemia = system: CCRF-CEM leukemia
# COLO 205 colon = system: COLO 205 colon
# DLD-1 colon = system: DLD-1 colon
# DMS 114 small cell lung = system: DMS 114 small cell lung
# DMS 273 small cell lung = system: DMS 273 small cell lung
# EKVX NSCLC = system: EKVX NSCLC
# HCC-2998 colon = system: HCC-2998 colon
# HCT-116 colon = system: HCT-116 colon
# HL-60(TB) leukemia = system: HL-60(TB) leukemia
# HOP-18 NSCLC = system: HOP-18 NSCLC
# HOP-62 NSCLC = system: HOP-62 NSCLC
# HOP-92 NSCLC = system: HOP-92 NSCLC
# HT29 colon = system: HT29 colon
# IGROV1 ovarian = system: IGROV1 ovarian
# K-562 leukemia = system: K-562 leukemia
# KM12 colon = system: KM12 colon
# KM20L2 colon = system: KM20L2 colon
# LOX IMVI melanoma = system: LOX IMVI melanoma
# LXFL 529 NSCLC = system: LXFL 529 NSCLC
# M14 melanoma = system: M14 melanoma
# M19-MEL melanoma = system: M19-MEL melanoma
# MALME-3M melanoma = system: MALME-3M melanoma
# MOLT-4 leukemia = system: MOLT-4 leukemia
# NCI-H226 lung = system: NCI-H226 lung
# NCI-H23 lung = system: NCI-H23 lung
# NCI-H460 lung = system: NCI-H460 lung
# NCI-H522 lung = system: NCI-H522 lung
# OVCAR-3 ovarian = system: OVCAR-3 ovarian
# OVCAR-4 ovarian = system: OVCAR-4 ovarian
# OVCAR-5 ovarian = system: OVCAR-5 ovarian
# OVCAR-8 ovarian = system: OVCAR-8 ovarian
# RPMI-8226 leukemia = system: RPMI-8226 leukemia
# RXF 393 renal = system: RXF 393 renal
# RXF-631 renal = system: RXF-631 renal
# SF-268 CNS = system: SF-268 CNS
# SF-295 CNS = system: SF-295 CNS
# SF-539 CNS = system: SF-539 CNS
# SK-MEL-28 melanoma = system: SK-MEL-28 melanoma
# SK-OV-3 ovarian = system: SK-OV-3 ovarian
# SN12C renal = system: SN12C renal
# SNB-19 CNS = system: SNB-19 CNS
# SNB-75 CNS = system: SNB-75 CNS
# SNB-78 CNS = system: SNB-78 CNS
# SR leukemia = system: SR leukemia
# SW-620 colon = system: SW-620 colon
# TK-10 renal = system: TK-10 renal
# U251 CNS = system: U251 CNS
# UACC-257 melanoma = system: UACC-257 melanoma
# UACC-62 melanoma = system: UACC-62 melanoma
# UO-31 renal = system: UO-31 renal
# XF 498 CNS = system: XF 498 CNS
# HCT-15 colon = system: HCT-15 colon
# SK-MEL-2 melanoma = system: SK-MEL-2 melanoma
# SK-MEL-5 melanoma = system: SK-MEL-5 melanoma
smiles,measurement,setting,value
CC1CCC(O)C(C(O)CC2CC(=O)N(C)C(=O)C2)C1 (stereo not given),TGI,786-0 renal,> 100 µM
same,TGI,A498 renal,> 100 µM
same,TGI,A549 NSCLC,> 100 µM
same,TGI,ACHN renal,> 100 µM
same,TGI,CAKI-1 renal,> 100 µM
same,TGI,CCRF-CEM leukemia,> 100 µM
same,TGI,COLO 205 colon,> 100 µM
same,TGI,DLD-1 colon,> 100 µM
same,TGI,DMS 114 small cell lung,> 100 µM
same,TGI,DMS 273 small cell lung,> 100 µM
same,TGI,EKVX NSCLC,> 100 µM
same,TGI,HCC-2998 colon,> 100 µM
same,TGI,HCT-116 colon,> 100 µM
same,TGI,HL-60(TB) leukemia,> 100 µM
same,TGI,HOP-18 NSCLC,> 100 µM
same,TGI,HOP-62 NSCLC,> 100 µM
same,TGI,HOP-92 NSCLC,> 100 µM
same,TGI,HT29 colon,> 100 µM
same,TGI,IGROV1 ovarian,> 100 µM
same,TGI,K-562 leukemia,> 100 µM
same,TGI,KM12 colon,> 100 µM
same,TGI,KM20L2 colon,> 100 µM
same,TGI,LOX IMVI melanoma,> 100 µM
same,TGI,LXFL 529 NSCLC,> 100 µM
same,TGI,M14 melanoma,> 100 µM
same,TGI,M19-MEL melanoma,> 100 µM
same,TGI,MALME-3M melanoma,> 100 µM
same,TGI,MOLT-4 leukemia,> 100 µM
same,TGI,NCI-H226 lung,> 100 µM
same,TGI,NCI-H23 lung,> 100 µM
same,TGI,NCI-H460 lung,> 100 µM
same,TGI,NCI-H522 lung,> 100 µM
same,TGI,OVCAR-3 ovarian,> 100 µM
same,TGI,OVCAR-4 ovarian,> 100 µM
same,TGI,OVCAR-5 ovarian,> 100 µM
same,TGI,OVCAR-8 ovarian,> 100 µM
same,TGI,RPMI-8226 leukemia,> 100 µM
same,TGI,RXF 393 renal,> 100 µM
same,TGI,RXF-631 renal,> 100 µM
same,TGI,SF-268 CNS,> 100 µM
same,TGI,SF-295 CNS,> 100 µM
same,TGI,SF-539 CNS,> 100 µM
same,TGI,SK-MEL-28 melanoma,> 100 µM
same,TGI,SK-OV-3 ovarian,> 100 µM
same,TGI,SN12C renal,> 100 µM
same,TGI,SNB-19 CNS,> 100 µM
same,TGI,SNB-75 CNS,> 100 µM
same,TGI,SNB-78 CNS,> 100 µM
same,TGI,SR leukemia,> 100 µM
same,TGI,SW-620 colon,> 100 µM
same,TGI,TK-10 renal,> 100 µM
same,TGI,U251 CNS,> 100 µM
same,TGI,UACC-257 melanoma,> 100 µM
same,TGI,UACC-62 melanoma,> 100 µM
same,TGI,UO-31 renal,> 100 µM
same,TGI,XF 498 CNS,> 100 µM
CCOC(=O)c1cnc2[nH]c(=O)c3ccccc3n2c1=O,TGI,786-0 renal,> 100 µM
same,TGI,A549 NSCLC,> 100 µM
same,TGI,ACHN renal,> 100 µM
same,TGI,CAKI-1 renal,> 100 µM
same,TGI,CCRF-CEM leukemia,> 100 µM
same,TGI,COLO 205 colon,> 100 µM
same,TGI,DLD-1 colon,> 100 µM
same,TGI,DMS 273 small cell lung,> 100 µM
same,TGI,EKVX NSCLC,> 100 µM
same,TGI,HCT-116 colon,> 100 µM
same,TGI,HCT-15 colon,> 100 µM
same,TGI,HL-60(TB) leukemia,> 100 µM
same,TGI,HOP-18 NSCLC,> 100 µM
same,TGI,HOP-62 NSCLC,> 100 µM
same,TGI,HOP-92 NSCLC,> 100 µM
same,TGI,HT29 colon,> 100 µM
same,TGI,IGROV1 ovarian,> 100 µM
same,TGI,K-562 leukemia,> 100 µM
same,TGI,KM12 colon,> 100 µM
same,TGI,KM20L2 colon,> 100 µM
same,TGI,LOX IMVI melanoma,> 100 µM
same,TGI,LXFL 529 NSCLC,> 100 µM
same,TGI,M14 melanoma,> 100 µM
same,TGI,M19-MEL melanoma,> 100 µM
same,TGI,MALME-3M melanoma,> 100 µM
same,TGI,MOLT-4 leukemia,> 100 µM
same,TGI,NCI-H226 lung,> 100 µM
same,TGI,NCI-H23 lung,> 100 µM
same,TGI,NCI-H460 lung,> 100 µM
same,TGI,NCI-H522 lung,> 100 µM
same,TGI,OVCAR-3 ovarian,> 100 µM
same,TGI,OVCAR-4 ovarian,> 100 µM
same,TGI,OVCAR-5 ovarian,> 100 µM
same,TGI,OVCAR-8 ovarian,> 100 µM
same,TGI,RPMI-8226 leukemia,> 100 µM
same,TGI,RXF 393 renal,> 100 µM
same,TGI,RXF-631 renal,> 100 µM
same,TGI,SF-268 CNS,> 100 µM
same,TGI,SF-295 CNS,> 100 µM
same,TGI,SF-539 CNS,> 100 µM
same,TGI,SK-MEL-2 melanoma,> 100 µM
same,TGI,SK-MEL-28 melanoma,> 100 µM
same,TGI,SK-MEL-5 melanoma,> 100 µM
same,TGI,SK-OV-3 ovarian,> 100 µM
same,TGI,SN12C renal,> 100 µM
same,TGI,SNB-19 CNS,> 100 µM
same,TGI,SNB-75 CNS,> 100 µM
same,TGI,SNB-78 CNS,> 100 µM
same,TGI,SR leukemia,> 100 µM
same,TGI,SW-620 colon,> 100 µM
same,TGI,TK-10 renal,> 100 µM
same,TGI,U251 CNS,> 100 µM
same,TGI,UACC-257 melanoma,> 100 µM
same,TGI,UACC-62 melanoma,> 100 µM
same,TGI,UO-31 renal,> 100 µM
same,TGI,XF 498 CNS,> 100 µM
Cc1cc(NS(=O)(=O)c2ccc(Nc3c4ccccc4nc4c(C(=O)NCCN(C)C)ccc(Cl)c34)cc2)no1,TGI,A549 NSCLC,17.3 µM
same,TGI,ACHN renal,12.3 µM
same,TGI,CCRF-CEM leukemia,10.8 µM
same,TGI,COLO 205 colon,14.9 µM
same,TGI,DLD-1 colon,17 µM
same,TGI,DMS 114 small cell lung,13.9 µM
same,TGI,EKVX NSCLC,21.2 µM
same,TGI,HCT-116 colon,15.5 µM
same,TGI,HCT-15 colon,19.5 µM
same,TGI,HL-60(TB) leukemia,5.58 µM
same,TGI,HOP-62 NSCLC,17.3 µM
same,TGI,HT29 colon,14.4 µM
same,TGI,IGROV1 ovarian,20.7 µM
same,TGI,K-562 leukemia,21.2 µM
same,TGI,KM12 colon,19.3 µM
same,TGI,KM20L2 colon,24 µM
same,TGI,LOX IMVI melanoma,10.9 µM
same,TGI,LXFL 529 NSCLC,19.2 µM
same,TGI,M14 melanoma,17.6 µM
same,TGI,M19-MEL melanoma,16.9 µM
same,TGI,MOLT-4 leukemia,1.74 µM
same,TGI,NCI-H226 lung,4.57 µM
same,TGI,NCI-H23 lung,16.1 µM
same,TGI,NCI-H460 lung,11.4 µM
same,TGI,NCI-H522 lung,3.86 µM
same,TGI,OVCAR-3 ovarian,23.9 µM
same,TGI,OVCAR-4 ovarian,17.6 µM
same,TGI,OVCAR-5 ovarian,28.5 µM
same,TGI,OVCAR-8 ovarian,14 µM
same,TGI,RXF 393 renal,22.8 µM
same,TGI,RXF-631 renal,20.9 µM
same,TGI,SF-268 CNS,15.3 µM
same,TGI,SF-295 CNS,16.2 µM
same,TGI,SF-539 CNS,14.6 µM
same,TGI,SK-MEL-2 melanoma,19.7 µM
same,TGI,SK-MEL-28 melanoma,16.1 µM
same,TGI,SK-MEL-5 melanoma,10.1 µM
same,TGI,SN12C renal,16.8 µM
same,TGI,SNB-19 CNS,9.68 µM
same,TGI,SNB-75 CNS,11.9 µM
same,TGI,SNB-78 CNS,44 µM
same,TGI,SR leukemia,10.8 µM
same,TGI,SW-620 colon,15.5 µM
same,TGI,TK-10 renal,27.1 µM
same,TGI,U251 CNS,13.6 µM
same,TGI,UACC-62 melanoma,10.4 µM
same,TGI,UO-31 renal,7.84 µM
same,TGI,XF 498 CNS,26.7 µM
